Assay: Acute intervention: nutrikinetics of plasma metabolites after ingestion of O. europaea extract (untargeted HPLC-ESI-QTOF-MS)
Protocol: A total of 25 healthy individuals participated, with an average age of 27 ± 9 years and a mean body mass index (BMI) of 23 ± 3 kg/m^2. None of the participants were taking any medications or nutritional supplements nor did they have any chronic diseases or gastrointestinal issues. The sample size was established based on findings from previous bioavailability research.[14] All participants provided informed consent before participating in the study.
The intervention study was carried out at Miguel Hernández University. Following an overnight fast, the volunteers were categorized into the subsequent groups: a subgroup to evaluate the LC leaf extract (n = 8), another for the OE leaf extract (n = 8), and the placebo subgroup (n = 9). This was a double-blind study, in which sample collection and treatment were carried out uniformly across all three subgroups.
Water was provided ad libitum. Prior to the ingestion of the capsule, a nurse inserted a cannula into the ulnar vein of each volunteer’s nondominant arm, and blood samples were drawn into EDTA-coated tubes at baseline (t = 0). Blood samples were then collected at 0.5, 1, 2, 4, 6, 8, and 10 h after the consumption of the 500 mg capsule. Plasma was separated through centrifugation (10 min at 3000 rpm and 4 °C) and stored at −80 °C until further analysis.
Plasma samples were initially treated using a mixture of methanol and ethanol (50:50; v:v) to remove proteins, following previously reported protocols.[19] During the sample treatment, pooled quality controls (pooled-QC) were prepared by combining equal aliquots from each sample. These QC samples were processed by using the same protocols as the experimental biological samples.
A reversed-phase analytical C18 column (Agilent Zorbax Eclipse Plus, 1.8 μm, 4.6 × 150 mm^2) with a protective cartridge with the same packing was used. MS data were acquired in negative ionization mode, operating in full scan across a mass-to-charge ratio (m/z) range of 50–1700. The analytical method used was adapted from that described by Villegas-Aguilar et al.[19]
Metabolite nutrikinetics were studied using PKSolver, an add-in program for pharmacokinetic data analysis in Microsoft Excel. The time to reach the maximum concentration (observed Tmax) was calculated for each significant metabolite. As an untargeted metabolomic approach was used to detect the circulating metabolites, these were not quantified. Therefore, the maximum concentration (Cmax) and area under the curve (AUC) parameters were calculated in a relative way by using the deconvoluted chromatographic areas. […] Statistical differences were determined by unpaired t tests. All p values less than 0.05 were considered statistically significant.

[1] = 0.5 h after O. europaea extract
[2] = human plasma, 500 mg capsule of O. europaea (OE) extract, oral, mean ± SD

| Molecule | mean chromatographic area in plasma, T0.5 [1] | mean chromatographic area in plasma, T1 (1 h after O. europaea extract) | mean chromatographic area in plasma, T2 (2 h after O. europaea extract) | mean chromatographic area in plasma, T4 (4 h after O. europaea extract) | mean chromatographic area in plasma, T6 (6 h after O. europaea extract) | mean chromatographic area in plasma, T8 (8 h after O. europaea extract) | mean chromatographic area in plasma, T10 (10 h after O. europaea extract) | Cmax: relative maximum plasma level [2] | observed Tmax: time required to reach Cmax [2] | Cmax: relative maximum plasma level (human, in vivo, po, 500 mg) | observed Tmax: time required to reach Cmax (human, in vivo, po, 500 mg) | mean chromatographic area in plasma, T0.5 (in vivo) | mean chromatographic area in plasma, T1 (in vivo) | mean chromatographic area in plasma, T2 (in vivo) | mean chromatographic area in plasma, T4 (in vivo) | mean chromatographic area in plasma, T6 (in vivo) | mean chromatographic area in plasma, T8 (in vivo) | mean chromatographic area in plasma, T10 (in vivo) |
| --- | --- | --- | --- | --- | --- | --- | --- | --- | --- | --- | --- | --- | --- | --- | --- | --- | --- | --- |
| 10-hydroxy-7 -methoxyoleuropein [10-hydroxy-7-methoxyoleuropein isomer 1] | 0 | 61 | 107 | 16 | 0 | 0 | 0 | 107 ± 22 relative chromatographic area | 2 ± 0 h | – | – | – | – | – | – | – | – | – |
| 10-hydroxy-7 -methoxyoleuropein [10-hydroxy-7-methoxyoleuropein isomer 2] | 11 | 164 | 229 | 148 | 34 | 0 | 0 | 241 ± 89 relative chromatographic area | 1.9 ± 0.3 h | – | – | – | – | – | – | – | – | – |
| OC[C@H]1O[C@@H](OCc2ccoc2)[C@H](O)[C@@H](O)[C@@H]1O (single isomer, unassigned; isomer 1) [3-furanmethanol glucoside isomer 1, 3-furanmethanol glucoside] | 27 | 200 | 184 | 107 | 17 | 0 | 0 | 236 ± 104 relative chromatographic area | 1.6 ± 0.5 h | – | – | – | – | – | – | – | – | – |
| OC[C@H]1O[C@@H](OCc2ccoc2)[C@H](O)[C@@H](O)[C@@H]1O (single isomer, unassigned; isomer 2) [3-furanmethanol glucoside isomer 2, 3-furanmethanol glucoside] | 625 | 1234 | 961 | 483 | 250 | 113 | 0 | 1234 ± 489 relative chromatographic area | 1 ± 0 h | – | – | – | – | – | – | – | – | – |
| COc1cc(C)cc(OC)c1OC [1,2,3-trimethoxy-5-methyl benzene] | 117 | 221 | 105 | 0 | 0 | 0 | 0 | 221 ± 72 relative chromatographic area | 1 ± 0 h | – | – | – | – | – | – | – | – | – |
| Oc1cc(O)c2c(c1)O[C@H](c1ccc(O)c(O)c1)[C@H](O)[C@H]2SCc1ccccc1 [4β-benzylthioepicatechin] | 25 | 123 | 151 | 50 | 0 | 0 | 0 | 158 ± 62 relative chromatographic area | 1.7 ± 0.5 h | – | – | – | – | – | – | – | – | – |
| COC(=O)C1=CO[C@H](O)/C(=C/CO)[C@@H]1CC(=O)OCCc1ccc(O)c(O)c1 [10-hydroxyoleuropein aglycone] | 165 | 142 | 15 | 0 | 0 | 0 | 0 | 194 ± 76 relative chromatographic area | 0.7 ± 0.2 h | – | – | – | – | – | – | – | – | – |
| O=C(/C=C/C1=CC(=O)C(=O)C=C1)OC1CC(O)(C(=O)O)CC(O)C1O (centres unmarked) [chlorogenoquinone] | 181 | 315 | 154 | 12 | 11 | 0 | 0 | 324 ± 7 relative chromatographic area | 0.9 ± 0.2 h | – | – | – | – | – | – | – | – | – |
| C[C@]12CC[C@@H](O[C@@H]3O[C@H](C(=O)O)[C@@H](O)[C@H](O)[C@H]3O)C[C@@H]1CC[C@@H]1[C@@H]2C(=O)C[C@@]2(C)[C@H]1CC[C@]2(O)[C@@H](O)CO [cortolone-3-glucuronide] | 0 | 0 | 0 | 160 | 82 | 63 | 0 | 163 ± 88 relative chromatographic area | 4.4 ± 0.8 h | – | – | – | – | – | – | – | – | – |
| O=C(O)CCCCCCCCC(=O)O [debacic acid isomer 3, sebacic acid] | – | – | – | – | – | – | – | – | – | 330 ± 109 relative chromatographic area | 6 ± 2 h | 13 | 0 | 33 | 209 | 226 | 178 | 141 |
| O=C(O)CCCCCCCCC(=O)O [decanedioic acid isomer 1, decanedioic acid] | 0 | 169 | 232 | 167 | 68 | 11 | 0 | 232 ± 48 relative chromatographic area | 2 ± 0 h | – | – | – | – | – | – | – | – | – |
| O=C(O)CCCCCCCCC(=O)O [decanedioic acid isomer 2, decanedioic acid] | 0 | 0 | 26 | 47 | 84 | 38 | 60 | 112 ± 11 relative chromatographic area | 6 ± 3 h | – | – | – | – | – | – | – | – | – |
| CC(=O)Oc1cc2c(c(C)c1OC(C)=O)CC=C1[C@@]2(C)CC[C@@]2(C)C3C[C@](C)(C(=O)O)CC[C@]3(C)CC[C@]12C (some centres unmarked) [dihydrocelastryl diacetate] | 0 | 38 | 150 | 163 | 81 | 38 | 20 | 239 ± 78 relative chromatographic area | 3 ± 1 h | – | – | – | – | – | – | – | – | – |
| COc1cc(CCC(=O)O)ccc1O[C@@H]1O[C@H](C(=O)O)[C@@H](O)[C@H](O)[C@H]1O [dihydroferulic acid 4-O-glucuronide] | – | – | – | – | – | – | – | – | – | 171 ± 110 relative chromatographic area | 2 ± 2 h | 74 | 114 | 94 | 113 | 109 | 74 | 41 |
| COc1cc(CCC(=O)O)ccc1OS(=O)(=O)O [dihydroferulic acid 4-sulfate] | – | – | – | – | – | – | – | – | – | 190 ± 20 relative chromatographic area | 1.3 ± 0.4 h | – | – | – | – | – | – | – |
| O=C(Oc1cc(O)c2c(c1)O[C@H](c1cc(O)c(O)c(O)c1)[C@H](O)C2)c1cc(O)c(O)c(O)c1 [epigallocatechin 7-O-gallate] | 14 | 126 | 12 | 0 | 0 | 0 | 0 | 126 ± 30 relative chromatographic area | 1 ± 0 h | – | – | – | – | – | – | – | – | – |

Source: publication PMC11544713, “The Application of Untargeted Metabolomic Approaches for the Search of Common Bioavailable Metabolites in Human Plasma Samples from Lippia citriodora and Olea europaea Extracts” (Journal of Agricultural and Food Chemistry, 2024)
